Active and inactive are the calls of the source. No cut-off for these calls is given here.
Legend:
Rattus norvegicus [1] = experiment: Ex vivo antiplatelet activity in Sprague-Dawley rat assessed as inhibition of collagen-induced platelet aggregation at 50 mg/kg, po after 1 hr; format: functional
Rattus norvegicus [2] = experiment: Ex vivo antiplatelet activity in Sprague-Dawley rat assessed as inhibition of collagen-induced platelet aggregation at 10 mg/kg, po after 1 hr; format: functional
Mus musculus = species: Mus musculus; experiment: Ex vivo antiplatelet activity in mouse assessed as inhibition of collagen-induced platelet aggregation at equivalent dose of ibuprofen after 1 hr
Rattus norvegicus [3] = experiment: Ex vivo antiplatelet activity in Sprague-Dawley rat assessed as inhibition of collagen-induced platelet aggregation at 40 mg/kg, po after 1 hr; format: functional

Row | Structure (SMILES) | inhibition in vivo at 50 mg/kg (Rattus norvegicus [1]) [%] | inhibition in vivo at 10 mg/kg (Rattus norvegicus [2]) [%] | inhibition (Mus musculus) | inhibition in vivo at 40 mg/kg (Rattus norvegicus [3]) [%]
1 | CC(C)Cc1ccc(C(C)C(=O)O)cn1 (stereo not given) | 65 | 33 |  | 
2 | CC(C)Cc1ccc(C(C)C(=O)O)c(Cl)n1 (stereo not given) |  |  | inactive | 
3 | CC(C)Cc1ccc(C(C)C(=O)O)cc1 (stereo not given) [IBUPROFEN] |  | 10 |  | 88

Source: ChEMBL document CHEMBL3227973, “Synthesis and platelet aggregation inhibitory activity of 6-isobutyl-alpha-methyl-3-pyridineacetic acid” (1979)
